Read-outs that look alike come from different tables or passages of the source.
System: Aβ42 production
Experiment: Quantification of Aβ peptide in culture of neurons from rat fetus brain (Aβ ELISA)
Assay type: cell-based
Conditions: rat primary neuronal culture (cerebral cortex, embryonic day 18 Wistar rats), medium collected three days after addition of the compound, Aβx-42 ELISA, read-out: Aβ42 production reducing effect IC50
Summary of the method: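 Primary cortical neurons from embryonic day 18 Wistar rats were cultured 4 days, then exposed to compound in Neurobasal/B27 without 2-ME, final DMSO ≤1%. After three days, medium was collected and Aβx-42 measured undiluted by sandwich ELISA.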

| Compound | IC50 (Neuron, 72 h) [nM] | IC50 [nM] |
| --- | --- | --- |
| COC[C@H]1OC[C@]2(c3cc(NC(=O)c4cnc(OCF)cn4)ccc3F)N=C(N)SC[C@H]12 [Example 69, N-[3-((4aS,5S,7aS)-2-amino-5-methoxymethyl-4a,5-dihydro-4H-furo[3,4-d][1,3]thiazin-7a-yl)-4-fluorophenyl]-5-fluoromethoxypyrazine-2-carboxamide] | 2 |  |
| NC1=N[C@@]2(c3cc(NC(=O)c4ccc(C(F)(F)F)cn4)ccc3F)CO[C@H](CF)[C@H]2CS1 [Example 70, N-[3-((4aS,5S,7aS)-2-amino-5-fluoromethyl-4a,5-dihydro-4H-furo[3,4-d][1,3]thiazin-7a-yl)-4-fluorophenyl]-5-trifluoromethylpyridine-2-carboxamide] | 2 |  |
| NC1=N[C@@]2(c3cc(NC(=O)c4ccc(Cl)cn4)ccc3F)CO[C@H](CF)[C@H]2CS1 [Example 71, N-[3-((4aS,5S,7aS)-2-amino-5-fluoromethyl-4a,5-dihydro-4H-furo[3,4-d][1,3]thiazin-7a-yl)-4-fluorophenyl]-5-chloropyridine-2-carboxamide] | 1 |  |
| NC1=N[C@@]2(c3cc(NC(=O)c4ccc(OC(F)F)cn4)ccc3F)CO[C@H](CF)[C@H]2CS1 [Example 72, N-[3-((4aS,5,7aS)-2-amino-5-fluoromethyl-4a,5-dihydro-4H-furo[3,4-d][1,3]thiazin-7a-yl)-4-fluorophenyl]-5-difluoromethoxypyridine-2-carboxamide] | 2 |  |
| NC1=N[C@@]2(c3cc(NC(=O)c4cnc(C(F)F)cn4)ccc3F)CO[C@H](CF)[C@H]2CS1 [Example 73, N-[3-((4aS,5S,7aS)-2-amino-5-fluoromethyl-4a,5-dihydro-4H-furo[3,4-d][1,3]thiazin-7a-yl)-4-fluorophenyl]-5-difluoromethylpyrazine-2-carboxamide] | 7 |  |
| NC1=N[C@@]2(c3cc(NC(=O)c4cnc(OCF)cn4)ccc3F)CO[C@H](CF)[C@H]2CS1 [Example 75, N-[3-((4aS,5,7aS)-2-amino-5-fluoromethyl-4a,5-dihydro-4H-furo[3,4-d][1,3]thiazin-7a-yl)-4-fluorophenyl]-5-fluoromethoxypyrazine-2-carboxamide] | 3 |  |
| NC1=N[C@@]2(c3cccc(-c4cccnc4F)c3)CN(C(=O)c3ccccc3)C[C@H]2CS1 [Example 82] | 425 |  |
| NC1=N[C@@]2(c3cccc(-c4cccnc4F)c3)CN(C(=O)C3CC3)C[C@H]2CS1 [Example 84] | 893 |  |
| NC1=N[C@@]2(c3cccc(-c4cccnc4F)c3)CN(c3cnccn3)C[C@H]2CS1 [Example 87] | 62 |  |
| NC1=N[C@@]2(c3cccc(-c4cccnc4F)c3)CN(c3cccc(F)n3)C[C@H]2CS1 [Example 88] | 75 |  |
| Cc1cnc(C(=O)Nc2ccc(F)c([C@]34CCCC[C@H]3CSC(N)=N4)c2)cn1 [Example 117] | 158 |  |
| NC1=N[C@@]2(c3cc(NC(=O)c4ncc(Br)cn4)ccc3F)CCCC[C@H]2CS1 [Example 120] | 38 |  |
| NC1=N[C@@]2(c3cc(NC(=O)c4ncccn4)ccc3F)CCCC[C@H]2CS1 [Example 121] | 263 |  |
| NC1=N[C@@]2(c3cc(NC(=O)c4ccc(Br)o4)ccc3F)CCCC[C@H]2CS1 [Example 122] | 123 |  |
| N#Cc1cnc(C(=O)Nc2ccc(F)c([C@]34CCC[C@H]3CSC(N)=N4)c2)nc1 [Example 126] | 70 |  |
| CNC(=O)c1ccc(C(=O)Nc2ccc(F)c([C@]34CCC[C@H]3CSC(N)=N4)c2)nc1 [Example 127] | 214 |  |
| CCOC(=O)c1cnc(C(=O)Nc2ccc(F)c([C@]34CCC[C@H]3CSC(N)=N4)c2)nc1 [Example 128] | 231 |  |
| NC(=O)c1ccc(C(=O)Nc2ccc(F)c([C@]34CCC[C@H]3CSC(N)=N4)c2)nc1 [Example 129] | 65 |  |
| NC1=N[C@@]2(c3cc(NC(=O)c4ccc(C5CC5)cn4)ccc3F)CCC[C@H]2CS1 [Example 134] | 86 |  |
| NC1=N[C@@]2(c3cc(NC(=O)c4ccc5cnccc5n4)ccc3F)CCC[C@H]2CS1 [Example 138] | 63 |  |
| NC1=N[C@@]2(c3cc(NC(=O)c4ccc5ccccc5n4)ccc3F)CCC[C@H]2CS1 [Example 139] | 169 |  |
| NC1=N[C@@]2(c3cc(NC(=O)c4cnc5ccccc5n4)ccc3F)CCC[C@H]2CS1 [Example 140] | 67 |  |
| C[C@H]1OC[C@H]2CSC(N)=N[C@]21c1cc(NC(=O)c2ccc(C#N)cn2)ccc1F [Example 151] | 167 |  |
| N#Cc1ccc(C(=O)Nc2ccc(F)c([C@]34CO[C@H](CF)[C@H]3CSC(N)=N4)c2)nc1 [Example 164, N-[3-((4aS,5S,7aS)-2-amino-5-fluoromethyl-4a,5-dihydro-4H-furo[3,4-d][1,3]thiazin-7a-yl)-4-fluorophenyl]-5-cyanopyridine-2-carboxamide] | 1 |  |
| Cc1cnc(C(=O)Nc2ccc(F)c([C@]34CCC[C@H]3CSC(N)=N4)c2)cn1 [Example 195] | 68 |  |

| Compound | IC50 (Neuron, 72 h) [nM] | IC50 [nM] |
| --- | --- | --- |
| NC1=N[C@@]2(c3cc(NC(=O)c4ccc(OCc5ccccc5)cn4)ccc3F)CCC[C@H]2CS1 [Example 196] | 977 |  |
| Cc1cc(Cl)ccc1C(=O)Nc1ccc(F)c([C@]23CCC[C@H]2CSC(N)=N3)c1 [Example 197] | 220 |  |
| NC1=N[C@@]2(c3cc(NC(=O)c4ncccn4)ccc3F)CCC[C@H]2CS1 [Example 198] | 129 |  |
| NC1=N[C@@]2(c3cc(NC(=O)c4ncc(Br)cn4)ccc3F)CCOC[C@H]2CS1 [Example 199] | 12 |  |
| NC1=N[C@@]2(c3cc(NC(=O)c4ncc(F)cc4F)ccc3F)CCOC[C@H]2CS1 [Example 200] | 44 |  |
| CO[C@H]1CC[C@]2(c3cc(NC(=O)c4cnc(C(F)F)cn4)ccc3F)N=C(N)SC[C@@H]2C1 [Example 205] | 25 |  |
| NC1=N[C@@]2(c3cc(NC(=O)c4nc5ccccc5s4)ccc3F)CCCC[C@H]2CS1 [Example 223] | 316 |  |
| NC1=N[C@@]2(c3cc(NC(=O)c4cnccn4)ccc3F)CCCC[C@H]2CS1 [Example 224] | 271 |  |
| Cc1ccc(C(=O)Nc2ccc(F)c([C@]34CCCC[C@H]3CSC(N)=N4)c2)nc1 [Example 225] | 198 |  |
| NC1=N[C@@]2(c3cccc(-c4cncnc4)c3)CN(c3cnccn3)C[C@H]2CS1 [Example 230] | 202 |  |
| NC1=N[C@@]2(c3cc(NC(=O)c4ccncn4)ccc3F)CCC[C@H]2CS1 [Example 233] | 86 |  |
| Cc1cccnc1C(=O)Nc1ccc(F)c([C@]23CCC[C@H]2CSC(N)=N3)c1 [Example 236] | 59 |  |
| CC(=O)c1ccc(C(=O)Nc2ccc(F)c([C@]34CCC[C@H]3CSC(N)=N4)c2)nc1 [Example 237] | 80 |  |
| COc1cccnc1C(=O)Nc1ccc(F)c([C@]23CCC[C@H]2CSC(N)=N3)c1 [Example 238] | 350 |  |
| Cn1cc(-c2ccc(C(=O)Nc3ccc(F)c([C@]45CCC[C@H]4CSC(N)=N5)c3)nc2)cn1 [Example 239] | 238 |  |
| NC1=N[C@@]2(c3cc(NC(=O)c4ncccc4F)ccc3F)CCCCC[C@H]2CS1 [Example 251] | 120 |  |
| NC1=N[C@@]2(c3cc(NC(=O)c4ncccc4C(F)(F)F)ccc3F)CCCCC[C@H]2CS1 [Example 252] | 187 |  |
| NC1=N[C@@]2(c3cc(NC(=O)c4ncccc4Br)ccc3F)CCCCC[C@H]2CS1 [Example 253] | 171 |  |
| NC1=N[C@@]2(c3cc(NC(=O)c4ccc(Br)cn4)ccc3F)CCCC[C@H]2CS1 [Example 254] | 43 |  |
| NC1=N[C@@]2(c3cc(NC(=O)c4ccccn4)ccc3F)CCCC[C@H]2CS1 [Example 255] | 158 |  |
| NC1=N[C@@]2(c3cc(NC(=O)c4ncccc4Cl)ccc3F)CCCC[C@H]2CS1 [Example 258] | 376 |  |
| NC1=N[C@@]2(c3cc(NC(=O)c4ncccc4F)ccc3F)CCCC[C@H]2CS1 [Example 259] | 372 |  |
| NC1=N[C@@]2(c3cc(NC(=O)c4ncccc4Br)ccc3F)CCCC[C@H]2CS1 [Example 260] | 170 |  |
| NC1=N[C@@]2(c3cc(NC(=O)c4ncccc4C(F)(F)F)ccc3F)CCCC[C@H]2CS1 [Example 261] | 277 |  |
| N-[3-((4aR*,9aS*)-2- amino-4a,5,6,7,8,9-hexahydro-4H- cyclohepta[d][1,3]thiaziin-9a-yl)-4- fluorophenyl]-6-chloropyridine-2- carboxamide [Example 248] |  | 16 |
